Assay results: patent US10975087B2, “Solid forms of tetrahydropyranyl amino-pyrrolopyrimidinone compounds” (ArQule, Inc., priority 2018, dated 2021)

Key:
Assay type in all cases: physicochemical
[1] = Form conversion under ambient or vacuum drying conditions
[2] = Dynamic vapor sorption (DVS); conditions: for Post-DVS XRPD analysis (form): after exposure to elevated humidity; for moisture uptake by DVS: at 90% RH
Description: Approximately 10-20 mg of sample was placed into a mesh vapor sorption balance pan and loaded into a DVS-1 dynamic vapor sorption balance by Surface Measurement Systems. […] After completion of the sorption cycle, the sample was dried using the same procedure to 0% RH and then a second sorption cycle back to 40% RH. Two cycles were performed. The weight change during the sorption/desorption cycles were plotted, allowing for the hygroscopic nature of the sample to be determined. XRPD analysis may be then carried out on any solid retained.

[3] = Gravimetric vapor sorption (GVS)
Description: Approximately 10-20 mg of sample was placed into a mesh vapor sorption balance pan and loaded into an IGASorp Moisture Sorption Analyzer balance by Hiden Analytical. The sample was subjected to a ramping profile from 40-90% relative humidity (RH) at 10% increments, maintaining the sample at each step until a stable weight had been achieved (98% step completion). After completion of the sorption cycle, the sample was dried using the same procedure to 0% RH, and finally taken back to the starting point of 40% RH. Two cycles were performed. The weight change during the sorption/desorption cycles were plotted, allowing for the hygroscopic nature of the sample to be determined.

Acetone solubility [4] = conditions: form of residual solid; amorphous input: Form 2 residual solid with additional peaks
Description: Aqueous and acetone solubility was carried out using 3-10 mg of material, depending on availability, and slurrying in 150-200 μL of acetone or 300 μL of deionized water. The samples were agitated at ambient temperature then filtered by centrifugation (0.22 μm nylon filter) after ca. 24 hours and the solids analyzed by XRPD as damp solids. The filtrates were analyzed by HPLC for concentration determination. The water solubility was too low for detection using the current analytical method.

Aqueous solubility = conditions: water, thermodynamic from solid, solvent addition method
Acetone solubility [5] = conditions: organic solvent or mixture, thermodynamic from solid, partial dissolution, solvent addition method
[6] = 7 day stability testing, open vials at 40° C./75% RH, ambient and 80° C.; conditions: 40° C./75% RH, 80° C., and ambient temperature, 1 week
[7] = Accelerated storage conditions (75% RH/40° C. for 72 hours), XRPD
[8] = Salt disproportionation studies (slurry in deionized water); conditions: 48 hours
Description: Samples of salts described herein were prepared for disproportionation studies. Approximately 15 mg of the salt material was suspended in 4 mL of deionized water at ambient temperature (ca. 22° C.). The slurry of the salt was shaken at ambient temperature and analyzed after: 1 h, 24 h, and 48 h. Each sample was filtered using a centrifuge filter. The solid was analyzed by XRPD. pH measurements were performed for the solution (three pH measurements were carried out for each sample and the average pH was calculated).

[9] = Thermodynamic solubility pH measurements; conditions: respective buffer, 25° C., 48 hours
Description: After 2 hours at 25° C., the pH of each slurry was measured and the pH was adjusted, where required. After 24 hours at 25° C., the pH of each slurry was measured and the pH was adjusted, where required. After 48 hours at 25° C., the slurries were separated by centrifugation. The solids were analyzed by XRPD, while the pH of the separated liquors were also measured.

[10] = Hydration studies in water/acetone mixtures; conditions: for Hydration study result (solid by XRPD): 5 days
Description: Hydration experiments were performed at 25° C. and 50° C. in water/acetone mixtures with the following water content (volume %): 2%, 5%, and 20%. The samples were prepared by adding 250 μL of the water/acetone mixture to 15 mg of the salt sample. The samples were stirred at 25° C. or at 50° C. After 2 days, the samples were inspected for the presence of solid. If solid was not observed, additional salt material was added to the dissolved samples. Samples were stirred for an additional 3 days. After 5 days, samples were filtered and the solid obtained was analyzed by XRPD.

[11] = Karl Fischer coulometric titration (KF) water content
Description: Approximately 10-30 mg of solid material was accurately weighed into a vial. The solid was then manually introduced into the titration cell of a Mettler Toledo C30 Compact Titrator. The vial was back-weighed after the addition of the solid and the weight of the added solid entered on the instrument. Titration was initiated once the sample had fully dissolved in the cell. The water content was calculated automatically by the instrument as a percentage and the data printed.

O=C(c1ccc(Oc2ccccc2)cc1Cl)c1c[nH]c2ncnc(N[C@@H]3CC[C@@H](CO)OC3)c12.O=S(=O)(O)c1cccc2c(S(=O)(=O)O)cccc12 [1,5-naphthalene disulfonic acid Form 2]
form conversion under vacuum drying conditions [1]: converts 1,5-naphthalene disulfonic acid Form 4

O=C(c1ccc(Oc2ccccc2)cc1Cl)c1c[nH]c2ncnc(N[C@@H]3CC[C@@H](CO)OC3)c12 [amorphous Compound A, (2-chloro-4-phenoxyphenyl)(4-(((3R,6S)-6-(hydroxymethyl)tetrahydro-2H-pyran-3-yl)amino)-7H-pyrrolo[2,3-d]pyrimidin-5-yl)methanone]
hygroscopic nature by DVS [2]: hygroscopic | Post-DVS XRPD analysis (form) [2]: remain amorphous | moisture uptake by DVS [2]: 3.9% | XRPD post GVS ([3]; cell wraps: Remained | unchanged): Remained | GVS (hygroscopicity) ([3]; summary Table 11): 3.9% uptake | Acetone solubility: residual solid (Acetone solubility [4]): (Form 2 residual | Solubility (Aqueous solubility): < 10 mg/mL | Solubility (Acetone solubility [5]): ≥ 16 mg/mL

Cl.O=C(c1ccc(Oc2ccccc2)cc1Cl)c1c[nH]c2ncnc(N[C@@H]3CC[C@@H](CO)OC3)c12 [hydrochloride Form 1]
form conversion under ambient conditions ([1]; ambient conditions): gradually converts to hydrochloride Form 2

O=C(O)C(=O)O.O=C(c1ccc(Oc2ccccc2)cc1Cl)c1c[nH]c2ncnc(N[C@@H]3CC[C@@H](CO)OC3)c12 [oxalate Form 1]
form conversion under vacuum drying conditions [1]: converts to oxalate Form 5

O=C(c1ccc(Oc2ccccc2)cc1Cl)c1c[nH]c2ncnc(N[C@@H]3CC[C@@H](CO)OC3)c12.O=P(O)(O)O [phosphate Form 1]
Post-DVS XRPD analysis (form) [2]: no change in form from the input material | moisture uptake by DVS [2]: ca. 3.2% | XRPD analysis after storage for 1 week [6]: no change in form from the input material | stability under accelerated storage conditions (XRPD) [7]: stable | XRPD after salt disproportionation study, 48 hours [8]: no change from the input material | XRPD after thermodynamic solubility studies [9]: no change from the input material | solid obtained in hydration study (XRPD) ([10]; 2% and 5% water in acetone, 25° C.): recovered | solid obtained in hydration study (XRPD) ([10]; 2% water in acetone, 50° C.): potentially new form | Hydration study result (solid by XRPD) ([10]; 2% water in water/acetone, 25° C., Form = form of the same salt): Form 1 | Hydration study result (solid by XRPD) ([10]; 2% water in water/acetone, 50° C., Form = form of the same salt): Form 1 | Hydration study result (solid by XRPD) ([10]; 5% water in water/acetone, 25° C., Form = form of the same salt): Form 1 | Hydration study result (solid by XRPD) ([10]; 5% water in water/acetone, 50° C., Form = form of the same salt): Form 6 | Hydration study result (solid by XRPD) ([10]; 20% water in water/acetone, 25° C.): Gum | Hydration study result (solid by XRPD) ([10]; 20% water in water/acetone, 50° C.): Gum | solid obtained in hydration study ([10]; the other experiments (remaining water contents/temperatures)): gum | KF moisture (water) content [11]: 3.74%
